US20250145624A1, “MEMBRANE-ASSOCIATED TYROSINE- AND THREONINE-SPECIFIC CDC2-INHIBITORY KINASE (PKMYT1) INHIBITORS AND USES THEREOF” (Insilico Medicine IP Limited, priority 2022, published 2025)

Legend:
WEE1 = WEE1 (Homo sapiens (Human), UniProt P30291); test: WEE1 ADP-Glo Assay; format: biochemical; conditions: compound 10 μM to 0.5 nM
Description: Example B: WEE1 ADP-Glo Assay
Compound serial dilution is performed by Echo, and the final concentrations vary from 10 μM to 0.5 nM. This was filled by the addition of 5 μL/well of Enzyme solution to the assay plate containing the compound. The plate was centrifuged at 1000 rpm for 1 minute, and incubate 15 minutes at 25° C. Then 5 μL/well of substrate solution was added to initiate the reaction, and incubate for 60 minutes at 25° C. Next 10 μL kinase detection reagent was added into the assay plate, the plate was centrifuged at 1000 rpm for 1 minute, and incubate for 60 minutes at 25° C. The assay plate was read on Envision for US LUM as RLU.

PKMYT1 (MYT1) = PKMYT1 (MYT1) (Homo sapiens (Human), UniProt Q99640); test: PKMYT1 HTRF Assay; format: binding; conditions: Tracer 178, GST-Tb; compound 10 μM to 0.5 nM
PKMYT1 (MYT1), sequence (Q99640 whole entry): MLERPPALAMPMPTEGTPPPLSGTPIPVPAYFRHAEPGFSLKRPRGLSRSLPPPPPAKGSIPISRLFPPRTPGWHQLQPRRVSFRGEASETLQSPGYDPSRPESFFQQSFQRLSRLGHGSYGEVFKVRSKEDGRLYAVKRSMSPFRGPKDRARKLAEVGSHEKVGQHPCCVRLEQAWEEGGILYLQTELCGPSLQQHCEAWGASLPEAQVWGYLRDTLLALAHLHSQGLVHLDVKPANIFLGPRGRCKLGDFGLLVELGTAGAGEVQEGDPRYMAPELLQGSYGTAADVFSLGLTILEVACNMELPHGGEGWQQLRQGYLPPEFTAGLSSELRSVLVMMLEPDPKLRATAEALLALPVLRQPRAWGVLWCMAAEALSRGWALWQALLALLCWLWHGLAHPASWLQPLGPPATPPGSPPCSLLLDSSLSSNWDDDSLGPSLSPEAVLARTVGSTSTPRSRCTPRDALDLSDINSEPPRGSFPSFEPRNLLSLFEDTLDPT
Description: Example A: PKMYT1 HTRF Assay
Compound serial dilution is performed by Echo, and the final concentrations vary from 10 μM to 0.5 nM. This was filled by the addition of 5 μL/well of Enzyme solution to the assay plate containing the compound. The plate was centrifuged at 1000 rpm for 1 minute, and incubate 15 minutes at 25° C. Then 5 μL/well of tracer solution (Tracer 178) was added to initiate the reaction, and incubate for 60 minutes at 25° C. Next 5 μL GST-Tb was added into the assay plate, the plate was centrifuged at 1000 rpm for 1 minute, and incubate for 15 minutes at 25° C. The assay plate was read on Envision.

WEE1, sequence (P30291 whole entry): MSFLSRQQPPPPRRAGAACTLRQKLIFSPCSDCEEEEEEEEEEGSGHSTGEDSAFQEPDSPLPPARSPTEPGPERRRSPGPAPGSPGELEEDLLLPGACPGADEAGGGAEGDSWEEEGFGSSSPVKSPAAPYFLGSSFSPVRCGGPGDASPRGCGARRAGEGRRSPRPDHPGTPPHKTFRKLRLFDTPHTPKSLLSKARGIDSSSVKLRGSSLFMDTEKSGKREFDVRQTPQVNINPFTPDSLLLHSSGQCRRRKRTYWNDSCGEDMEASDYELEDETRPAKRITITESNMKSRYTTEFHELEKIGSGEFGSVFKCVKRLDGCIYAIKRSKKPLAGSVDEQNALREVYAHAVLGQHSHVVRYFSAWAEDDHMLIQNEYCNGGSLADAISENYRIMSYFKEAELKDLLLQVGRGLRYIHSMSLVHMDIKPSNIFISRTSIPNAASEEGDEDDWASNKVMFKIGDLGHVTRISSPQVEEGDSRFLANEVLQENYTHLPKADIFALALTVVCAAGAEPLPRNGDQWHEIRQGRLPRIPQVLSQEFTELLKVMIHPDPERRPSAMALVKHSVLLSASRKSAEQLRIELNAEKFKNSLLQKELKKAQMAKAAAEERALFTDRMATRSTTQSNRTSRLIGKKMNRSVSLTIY

Structure (SMILES)	IC50 (WEE1) [nM]	IC50 (PKMYT1 (MYT1)) [nM]
Cc1ccc(O)c(C)c1-n1c(N)c2c3c(c(C)ncc31)CCNC2=O [Example 2, 1-amino-2-(3-hydroxy-2,6-dimethylphenyl)-5-methyl-2,6,7,8-tetrahydro-9H-2,4,8-triazabenzo[cd]azulen-9-one]	> 10000	10 to 50
Cc1ccc(O)c(C)c1-n1c(N)c2c3c(c(C)cnc31)CCNC2=O [Example 1, 1-amino-2-(3-hydroxy-2,6-dimethylphenyl)-5-methyl-2,6,7,8-tetrahydro-9H-2,3,8-triazabenzo[cd]azulen-9-one]	1210	< 10
Cc1nc2c3c(c(N)n(-c4c(C)ccc(O)c4C)c3n1)C(=O)NCC2 [Example 3, 1-amino-2-(3-hydroxy-2,6-dimethylphenyl)-4-methyl-2,6,7,8-tetrahydro-9H-2,3,5,8-tetraazabenzo[cd]azulen-9-one]		< 10
